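Protocol summary: plate cells (96-well), add compound at 5 concentrations, incubate 48 h, interpolate endpoints linearly. TGI: concentration producing complete growth inhibition.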
Legend:
Assay in all cases: NCI anticancer screen, dose series, 48 h
K-562 leukemia = tested on: K-562 leukemia
MCF7 breast = tested on: MCF7 breast
NCI-H23 lung = tested on: NCI-H23 lung
NCI-H460 lung = tested on: NCI-H460 lung
HS 578T breast = tested on: HS 578T breast
MDA-N = tested on: MDA-N
LOX IMVI melanoma = tested on: LOX IMVI melanoma
SK-MEL-2 melanoma = tested on: SK-MEL-2 melanoma
RPMI-8226 leukemia = tested on: RPMI-8226 leukemia
A549 NSCLC = tested on: A549 NSCLC
OVCAR-5 ovarian = tested on: OVCAR-5 ovarian
A498 renal = tested on: A498 renal
NCI/ADR-RES ovarian = tested on: NCI/ADR-RES ovarian
NCI-H522 lung = tested on: NCI-H522 lung
KM12 colon = tested on: KM12 colon
SN12C renal = tested on: SN12C renal
DU-145 prostate = tested on: DU-145 prostate
NCI-H226 lung = tested on: NCI-H226 lung

Row | SMILES | TGI (K-562 leukemia) | TGI (MCF7 breast) | TGI (NCI-H23 lung) | TGI (NCI-H460 lung) | TGI (HS 578T breast) | TGI (MDA-N) | TGI (LOX IMVI melanoma) | TGI (SK-MEL-2 melanoma) | TGI (RPMI-8226 leukemia) | TGI (A549 NSCLC) | TGI (OVCAR-5 ovarian) | TGI (A498 renal) | TGI (NCI/ADR-RES ovarian) | TGI (NCI-H522 lung) | TGI (KM12 colon) | TGI (SN12C renal) | TGI (DU-145 prostate) | TGI (NCI-H226 lung)
1 | O=c1c2c3c(sc2nc2n1N=CN(c1ccc(Cl)cc1)C2)CCCC3 | > 100 µM | > 100 µM | > 100 µM | > 100 µM | 36.9 µM | > 100 µM | > 100 µM | > 100 µM | > 100 µM | > 100 µM | > 100 µM | > 100 µM | > 100 µM | > 100 µM | > 100 µM | > 100 µM | > 100 µM | > 100 µM
2 | COC(=O)C(Cc1c[nH]c2ccccc12)NP(=O)(O)OCC1OC(n2cc(F)c(=O)[nH]c2=O)CC1O (configuration not stated) | > 100 µM | > 100 µM | > 100 µM | > 100 µM | > 100 µM | > 100 µM | > 100 µM | > 100 µM | > 100 µM | > 100 µM | > 100 µM | > 100 µM | > 100 µM | > 100 µM | > 100 µM | > 100 µM | > 100 µM | > 100 µM
3 | COc1cc(C2S/C(=C/c3ccccc3)C(=O)N2c2ccc([N+](=O)[O-])cc2)cc(OC)c1OC (configuration not stated) | > 100 µM | > 100 µM | > 100 µM | > 100 µM | > 100 µM | > 100 µM | > 100 µM | > 100 µM | > 100 µM | > 100 µM | > 100 µM | > 100 µM | > 100 µM | > 100 µM | > 100 µM | > 100 µM | > 89.1 µM | > 100 µM
4 | CC1(C)N=C(N)N=C(N)N1c1cccc(OCc2cccc([N+](=O)[O-])c2)c1 | > 100 µM | > 100 µM | > 100 µM | 51.6 µM | > 100 µM | > 100 µM | > 100 µM | > 100 µM | > 100 µM | > 100 µM | > 100 µM | > 100 µM | > 100 µM | > 100 µM | > 100 µM | > 100 µM | > 100 µM | > 100 µM
5 | COc1cc(/C=N/NC2=NCCCN2)ccc1O | > 100 µM | > 100 µM | > 100 µM | > 100 µM | > 100 µM | > 100 µM | > 100 µM | > 100 µM | > 100 µM | > 100 µM | > 100 µM | > 100 µM | > 100 µM | > 100 µM | > 100 µM | > 100 µM | > 100 µM | > 100 µM
6 | COC(=O)c1nc2c3c(cccc3c1C(=O)OC)Nc1ccccc1-2 | > 100 µM | > 100 µM | > 100 µM | 77.9 µM | > 100 µM | > 100 µM | > 100 µM | 71.8 µM | > 100 µM | > 100 µM | > 100 µM | > 100 µM | > 100 µM | 41.5 µM | > 100 µM | > 100 µM | > 100 µM | > 100 µM
7 | O=c1[nH]c(=O)n(C2CC(O)C(CO)O2)c2nc3ccc4ccccc4c3nc12 (configuration not stated) | > 100 µM | > 100 µM | > 100 µM | > 100 µM | > 100 µM | > 100 µM | > 100 µM | > 100 µM | 76 µM | > 100 µM | > 100 µM | > 100 µM | > 100 µM | > 100 µM | > 100 µM | > 100 µM | > 100 µM | > 100 µM
8 | CC(C)(CCCCC(C)(C)NCC1COc2ccccc2O1)NCC1COc2ccccc2O1 (configuration not stated) | > 10 µM | > 10 µM | > 10 µM | > 10 µM | > 10 µM | 5.66 µM | > 10 µM | 6.68 µM | > 10 µM | > 10 µM | > 10 µM | > 10 µM | > 10 µM | > 10 µM | > 10 µM | > 10 µM | > 10 µM | > 10 µM
9 | O=C1CCSc2c(cnc3ccccc23)N1 | > 100 µM | > 100 µM | > 100 µM | > 100 µM | > 100 µM | > 100 µM | > 100 µM | > 100 µM | > 100 µM | > 100 µM | > 100 µM | > 100 µM | > 100 µM | > 100 µM | > 100 µM | > 100 µM | > 100 µM | > 100 µM

Reference: PubChem BioAssay (NCI)
